Like-named read-outs stand apart in the source and are kept apart here.
How the values were obtained:
[1] = in vivo
Description: The patients included in this palbociclib population pharmacokinetic/pharmacodynamic analysis were treated in the phase I clinical trial PBTC-042 (NCT02255461), which evaluated single-agent oral palbociclib therapy in children and young adults with recurrent, progressive, or refractory brain tumors. Details of this clinical trial have been reported elsewhere. In adults treated with palbociclib, myelosuppression has been the main dose-limiting toxicity (DLT) reported, and the toxicity is greater in more heavily pretreated patients. Thus, patients in this pediatric trial were divided into two strata: stratum I included patients who were not heavily pretreated, while stratum II included heavily pretreated patients. The starting dosage for stratum I was 50 mg/m^2, with planned dose escalations to 75 mg/m^2 and 95 mg/m^2. The planned starting dosage for stratum II was one dosage level below the MTD for stratum I. The Institutional Review Board approved this trial and written informed consent was obtained from patients, parents, or legal guardians before the onset of any study procedures. Assent was obtained from patients as appropriate based on local institutional guidelines.
Pharmacokinetic studies of oral palbociclib (PD-0332991) were performed on course 1, day 1 and day 21 to evaluate the population pharmacokinetics of palbociclib. On day 2 of course 1, the palbociclib dose was held. On day 1 of course 1, palbociclib single-dose serial blood samples were drawn pre-dose and 0.5, 1, 2, 4, 8 (±1), 24 (±4), and 48 (±4) hours (immediately prior to the day 3 dose) after the oral dose. On day 21 of course 1, palbociclib steady-state serial blood samples were collected pre-dose and 1, 2, 4, 8 (±1), and 24 (±4) hours (immediately prior to the day 22 dose) after the dose.
At each time point, whole blood (2 mL) was collected in K2EDTA tubes, spun to plasma within one hour of collection, and stored at −20 °C until analysis. Palbociclib plasma concentrations were measured using a validated liquid chromatography–mass spectrometric assay method with a lower limit of quantitation (LLOQ) of 1 ng/mL [14].
Palbociclib serum concentration–time data from course 1, day 1 and day 21 were analyzed using nonlinear mixed-effects modeling implemented in Monolix software version 2023R1 (Lixoft, Antony, France) using the Stochastic Approximation Expectation Maximization (SAEM) algorithm. Inter-individual and inter-occasion variabilities were assumed to be log-normally distributed. A proportional residual error model was used to quantify the unexplained variability of the model. Error terms were assumed to be normally distributed. A one-compartment model with first-order absorption, the absorption lag time, and first-order elimination was used. Specifically, the PK parameters estimated included the absorption lag time (Tlag), absorption rate constant (ka), apparent oral volume (V/F), and apparent oral clearance (CL/F), where F was the bioavailability, which was not identifiable given only oral dosing was used. The inter-individual variability was estimated for all parameters. Additionally, the inter-occasion variability was estimated for the CL/F. The palbociclib dosage (i.e., the palbociclib dosage normalized to the patient body surface area (BSA)) was used as the model input. Data below the limit of quantitation (BLQ) were censored according to the Beal method M3 [17], as implemented in Monolix. […]

[2] = test system: proliferating neutrophils in the bone marrow compartment (ANC); experiment: Population pharmacodynamic model of ANC (neutrophil dynamics); type: in vivo, children and young adults
Description: (§1) A complete blood count (CBC) with differential was performed pre-therapy, weekly during course 1, and then weekly during courses 2 to 26. The CBC provided platelet and absolute neutrophil counts (ANCs).
(§2) The model describing the ANC and platelet dynamics has been previously described. The model for the ANC consisted of a bone marrow compartment with proliferating neutrophils, three transient compartments that represent the maturation process of the neutrophils from blasts to circulating neutrophils, and a circulating neutrophil compartment. The model included the negative feedback effects of endogenous G-CSF, which affected the growth rate of proliferating cells in a manner inversely proportional to the concentration of circulating neutrophils. We assumed that palbociclib only affected the proliferating neutrophils in the bone marrow compartment. We used a similar structural model for platelet dynamics. The model describing the neutrophil dynamics is shown in Equations (1)–(5) and Figure S1. (1) NPBM/dt=kinKM/KM+NcircIC50n/IC50n+Cpalblociclibn−kbpNPBM (2) dNT1/dt=kbpNPBM−NT1 (3) dNT2/dt=kbpNT1−NT2 (4) dNT3/dt=kbpNT2−NT3 (5) dNcirc/dt=kpbNT3−koutNcirc
The model parameters were as follows: NPBM: proliferating bone marrow stem cells; NT1, NT2, and NT3: transient compartments describing the maturation phases of the neutrophils; Ncirc: circulating neutrophils. Note that we were only able to observe this compartment. The model parameters were defined as follows: kin (1/days): the stem cell proliferation rate; kbp (1/days): the transition rate between transient compartments (the mean transition time from the bone marrow to the circulating neutrophils is 4/kbp); kout (1/days): the elimination rate of circulating neutrophils; KM (10^3/µL): the half-saturation effect of the G-CSF negative feedback; IC50 (nM) and n; the half-saturation effect and Hill coefficient of the palbociclib effects on the bone marrow; and Cpalbociclib (nM): the concentration of palbociclib in the plasma. Prior to treatment, the system was assumed to be steady-state, where Ncirc0 was the steady-state circulating neutrophil level. The following relationship between the model parameters was needed for the system to maintain steady state prior to treatment (Equation (6)). (6) KM=kbp/kin−kbpNcirc0
For this relationship to be positive, kin > kpb. To ensure this requirement, we defined kpb = fkbp·kin where fkbp ∈ [0, 1] and estimated fkbp. In addition, the initial conditions for the system at steady state (i.e., the steady-state solution to the system in the absence of the drug) are (Equation (7)) (7) kout/kbpNcirc0, kout/kbpNcirc0, kout/kbpNcirc0, kout/kbpNcirc0, Ncirc0
The parameters for the pharmacodynamic model were estimated using nonlinear mixed-effects modeling with the SAEM algorithm as implemented in the Monolix® software version 2023R1 (Lixoft, Antony, France). The palbociclib pharmacokinetics were fixed to each individual’s post hoc estimated parameters (as determined above). The inter-individual and inter-occasion variability were assumed to be log-normally distributed for all parameters except fkbp, which was assumed to be a logit distribution, so its value will be between 0 and 1. A proportional residual error model was used to quantify the unexplained variability of the model. Error terms were assumed to be normally distributed.

platelets (PLT) = experiment: Population pharmacodynamic model of platelet (PLT) dynamics; type: in vivo, children and young adults
Description: as §1
as §2, with “The model describing the neutrophil dynamics is shown in Equations (1)–(5) and Figure S1. (1) NPBM/dt=kinKM/KM+NcircIC50n/IC50n+Cpalblociclibn−kbpNPBM (2) dNT1/dt=kbpNPBM−NT1 (3) dNT2/dt=kbpNT1−NT2 (4) dNT3/dt=kbpNT2−NT3 (5) dNcirc/dt=kpbNT3−koutNcirc” left out
The parameters for the pharmacodynamic model were estimated using nonlinear mixed-effects modeling with the SAEM algorithm as implemented in the Monolix® software version 2023R1 (Lixoft, Antony, France). The palbociclib pharmacokinetics were fixed to each individual’s post hoc estimated parameters (as determined above). […] A proportional residual error model was used to quantify the unexplained variability of the model. […]

[3] = set-up: method as in PMID 37553297; details: mean (range), 12 children, cited from earlier work
[4] = cited from earlier work
[5] = median (5th–95th percentile), individual model estimates, first two courses

CC(=O)c1c(C)c2cnc(Nc3ccc(N4CCNCC4)cn3)nc2n(C2CCCC2)c1=O [palbociclib]
Inter-patient variability (IIV) of CL/F ([1]; human): 0.24 | absorption rate constant ([1]; human): 0.48 h⁻¹ | decrease of inter-patient variability of CL/F with inclusion of AST ([1]; human): 10% | fold lower apparent oral clearance ([1]; human, po): 2 fold | effect of concomitant drugs as covariates on CL/F [1]: None of the concomitant drugs considered as covariates were significant | IC50 ([2]; Homo sapiens, Neutrophil, read-out: IC50 (half-saturation effect of palbociclib on the bone marrow)): 384 nM | cumulative nature of decreases in ANCs ([2]; courses 3 and 4 predicted from courses 1 and 2): not cumulative | time individuals had grade 3 or greater neutropenia ([2]; median (5th–95th percentile) (abstract)): 4 (0, 21) days | ANC nadir ([2]; median (5th–95th percentile), first two courses): 1.0 (0.4, 3.3) × 10^3/µL | time below an ANC of 0.5 × 10^3/µL (grade 4 neutropenia) [2, 5]: 0 (0, 11) days/course | time below an ANC of 1.0 × 10^3/µL (grade 3 neutropenia) [2, 5]: 4 (0, 21) days/course | time below an ANC of 1.5 × 10^3/µL (grade 2 neutropenia) [2, 5]: 15 (0, 35) days/course | IC50 (platelets (PLT); Homo sapiens, Platelet, read-out: IC50 (half-saturation effect of palbociclib on the bone marrow)): 559 nM | individuals with grade 1 (<100 ×) or greater thrombocytopenia (platelets (PLT); individual model estimates, first two courses, 31 individuals): three | steady state apparent oral clearance ([3]; capsule and liquid formulations): 40.4 (21.1–102.0) L/h/m^2 | half-life [3]: 27.9 (4.5–86.8) hours | apparent oral clearance ([4]; Courlet, 45 women with metastatic breast cancer, two-compartment model): 67 L/h | apparent oral clearance ([4]; Courlet, 45 women with metastatic breast cancer): 39 L/h/m^2 | apparent oral clearance ([4]; Royer, adults, 124 patients): 34 L/h/m^2 | apparent oral clearance ([4]; Royer, adults, therapeutic drug monitoring data, 124 patients): 58 L/h | apparent oral clearance ([4]; adults, 143 patients): 34 L/h/m^2 | apparent oral clearance ([4]; adults, therapeutic drug monitoring data, 143 patients): 57 L/h | increase of apparent oral clearance ([4]; taken under fasting conditions along with concomitant proton pump inhibitors): 56%
